From article PMC8213057, “Targeting ALK2: An Open Science Approach to Developing Therapeutics for the Treatment of Diffuse Intrinsic Pontine Glioma” (Journal of Medicinal Chemistry, 2020) come the findings set out here.

The target of experiment [1] is T1, NEK1 (Homo sapiens, UniProt Q96PY6).
T1 sequence (Q96PY6 1-1258): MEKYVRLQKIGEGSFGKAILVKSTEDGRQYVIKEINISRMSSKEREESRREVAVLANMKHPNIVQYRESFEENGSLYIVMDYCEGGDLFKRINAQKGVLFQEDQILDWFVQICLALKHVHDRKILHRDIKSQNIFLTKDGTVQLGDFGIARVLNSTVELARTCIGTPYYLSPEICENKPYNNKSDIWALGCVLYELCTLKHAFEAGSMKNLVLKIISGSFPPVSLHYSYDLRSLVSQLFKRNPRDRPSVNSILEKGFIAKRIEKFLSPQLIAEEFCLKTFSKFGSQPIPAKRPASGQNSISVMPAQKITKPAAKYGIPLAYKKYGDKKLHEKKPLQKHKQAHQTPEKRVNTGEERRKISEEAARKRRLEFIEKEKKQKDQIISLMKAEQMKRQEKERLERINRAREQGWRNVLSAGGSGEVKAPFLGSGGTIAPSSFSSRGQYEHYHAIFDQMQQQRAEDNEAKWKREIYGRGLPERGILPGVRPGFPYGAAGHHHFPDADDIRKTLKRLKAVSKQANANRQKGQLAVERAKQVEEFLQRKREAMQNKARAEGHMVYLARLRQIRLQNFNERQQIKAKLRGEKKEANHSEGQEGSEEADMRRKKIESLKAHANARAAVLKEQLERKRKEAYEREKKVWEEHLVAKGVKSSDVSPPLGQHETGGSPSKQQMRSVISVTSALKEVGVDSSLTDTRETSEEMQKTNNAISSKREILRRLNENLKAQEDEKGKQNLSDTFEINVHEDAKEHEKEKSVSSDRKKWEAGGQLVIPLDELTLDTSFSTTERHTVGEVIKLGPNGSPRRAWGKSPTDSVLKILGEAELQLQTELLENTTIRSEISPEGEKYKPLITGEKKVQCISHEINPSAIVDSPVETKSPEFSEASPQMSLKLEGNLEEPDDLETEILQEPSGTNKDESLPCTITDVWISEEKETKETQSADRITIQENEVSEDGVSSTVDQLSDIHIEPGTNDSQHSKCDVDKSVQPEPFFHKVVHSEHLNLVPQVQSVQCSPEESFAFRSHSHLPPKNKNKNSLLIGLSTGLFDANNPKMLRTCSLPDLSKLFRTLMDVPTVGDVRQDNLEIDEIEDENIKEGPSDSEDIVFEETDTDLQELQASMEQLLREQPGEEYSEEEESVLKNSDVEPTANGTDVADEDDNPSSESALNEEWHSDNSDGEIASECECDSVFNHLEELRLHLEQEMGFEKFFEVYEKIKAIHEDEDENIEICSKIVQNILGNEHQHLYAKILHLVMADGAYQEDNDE
As to the kind of experiment: biochemical. The settings on record: read-out: % enzyme activity, 1 μM; Run 1, Run 2.

The target of experiment [2] is T2, EPHA1 (Homo sapiens, UniProt P21709).
T2 sequence (P21709 26-976): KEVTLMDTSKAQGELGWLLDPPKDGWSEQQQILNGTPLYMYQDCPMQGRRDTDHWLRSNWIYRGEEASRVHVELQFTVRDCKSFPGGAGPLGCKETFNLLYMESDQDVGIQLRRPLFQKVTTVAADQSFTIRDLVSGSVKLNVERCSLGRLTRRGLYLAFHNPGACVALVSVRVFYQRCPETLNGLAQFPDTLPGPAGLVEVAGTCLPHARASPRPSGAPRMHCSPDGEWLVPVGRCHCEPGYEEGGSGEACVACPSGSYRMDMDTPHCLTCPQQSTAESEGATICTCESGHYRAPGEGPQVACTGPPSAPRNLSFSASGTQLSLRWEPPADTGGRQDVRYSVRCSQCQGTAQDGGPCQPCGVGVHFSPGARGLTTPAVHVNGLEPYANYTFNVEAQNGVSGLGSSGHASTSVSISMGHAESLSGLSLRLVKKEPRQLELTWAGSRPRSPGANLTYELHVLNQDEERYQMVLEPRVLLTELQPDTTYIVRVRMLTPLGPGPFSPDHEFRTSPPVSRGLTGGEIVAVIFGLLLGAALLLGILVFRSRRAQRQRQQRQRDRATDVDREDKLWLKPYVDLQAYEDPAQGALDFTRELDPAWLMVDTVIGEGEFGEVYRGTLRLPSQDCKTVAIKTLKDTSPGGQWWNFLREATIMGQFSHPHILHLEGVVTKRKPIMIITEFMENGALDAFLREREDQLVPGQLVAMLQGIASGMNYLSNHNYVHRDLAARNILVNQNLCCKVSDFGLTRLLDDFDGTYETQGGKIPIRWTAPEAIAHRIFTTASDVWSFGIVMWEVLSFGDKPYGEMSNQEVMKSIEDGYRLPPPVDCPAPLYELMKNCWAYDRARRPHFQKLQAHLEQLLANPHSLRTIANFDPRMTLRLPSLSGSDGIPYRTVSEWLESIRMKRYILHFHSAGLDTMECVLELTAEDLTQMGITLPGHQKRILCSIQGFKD
The experiment can be described thus: biochemical. The settings on record: read-out: % enzyme activity, 1 μM; Run 1, Run 2.

For experiment [3], the target named is CAMK1d (Homo sapiens, UniProt Q8IU85). The settings on record: 1 μM; Run 1, Run 2.
The target of experiment [4] is PHKg1 (Homo sapiens, UniProt Q16816). The settings on record: 1 μM; Run 1, Run 2.

SMILES strings stand for the structures.

Sequence of CAMK1d (Q8IU85 whole entry): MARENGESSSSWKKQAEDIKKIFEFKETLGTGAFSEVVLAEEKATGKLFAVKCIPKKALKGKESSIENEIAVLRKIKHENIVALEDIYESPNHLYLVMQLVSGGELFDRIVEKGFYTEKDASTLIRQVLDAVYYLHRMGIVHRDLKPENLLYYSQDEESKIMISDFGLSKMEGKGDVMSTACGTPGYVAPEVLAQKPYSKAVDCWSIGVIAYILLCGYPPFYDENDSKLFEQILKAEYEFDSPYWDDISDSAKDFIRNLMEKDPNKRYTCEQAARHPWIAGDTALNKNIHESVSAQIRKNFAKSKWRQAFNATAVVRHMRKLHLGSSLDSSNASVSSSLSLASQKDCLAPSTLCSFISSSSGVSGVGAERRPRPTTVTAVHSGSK
Sequence of PHKg1 (Q16816 whole entry): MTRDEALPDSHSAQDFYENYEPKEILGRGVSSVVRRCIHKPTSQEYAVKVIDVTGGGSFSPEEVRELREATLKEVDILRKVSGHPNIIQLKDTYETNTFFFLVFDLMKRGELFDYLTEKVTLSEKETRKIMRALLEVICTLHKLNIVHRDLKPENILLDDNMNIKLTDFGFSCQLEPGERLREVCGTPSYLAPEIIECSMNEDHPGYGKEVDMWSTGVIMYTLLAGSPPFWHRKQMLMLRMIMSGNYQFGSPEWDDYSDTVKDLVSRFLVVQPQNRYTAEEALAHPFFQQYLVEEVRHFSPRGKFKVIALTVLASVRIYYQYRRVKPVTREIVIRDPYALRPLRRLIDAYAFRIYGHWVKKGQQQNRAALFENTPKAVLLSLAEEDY

For the compound `COc1cc(-c2cncc(-c3ccc(N4CCN(C)CC4)cc3)c2C)cc(F)c1C(N)=O` [Compound 26a, 2-Fluoro-6-methoxy-4-(4-methyl-5-(4-(4-methylpiperazin-1-yl)phenyl)pyridin-3-yl)benzamide], the remaining activity at 1 µM in experiment [1] amounted to 87.6%; in experiment [2] it was 97.5%. Further, the “% enzyme activity” value in experiment [3] is reported as 98.20%; in experiment [4], 82.79%.
Taken in the same sequence, the figures for `COc1cc(-c2cncc(-c3ccc(N4C[C@@H](C)N(C)[C@@H](C)C4)cc3)c2C)cc(F)c1C(N)=O` [Compound 26c, 2-Fluoro-6-methoxy-4-(4-methyl-5-(4-((3R,5S)-3,4,5-trimethylpiperazin-1-yl)phenyl)pyridin-3-yl)benzamide] were 88.1%, 93.3%, 97.72% and 95.24%.
